Measured values as given in US20110097380A1, “CLONIDINE FORMULATIONS HAVING ANTIMICROBIAL PROPERTIES” (Warsaw Orthopedic, Inc., priority 2009, published 2011).

What was measured:
Test in all cases: Film inoculated on Tryptic Soy Agar plate: growth, zone of inhibition, scraping/streak
Format in all cases: cell-based
Details in all cases: after 4 days
[1] = test system: Staphylococcus aureus ATCC 6538
Protocol: (§1) Each film sample was individually placed on the surface of a Tryptic Soy Agar (TSA) plate in an aseptic manner. Each film was individually inoculated with 1 mL of one of the three (3) challenge organisms shown below. For each challenge organism, one “Sample Film” and one “Control Film” were inoculated. Due to the anticipated slow absorption of the challenge inoculum by the test samples, the inoculum was dispensed onto each film sample very slowly. After inoculation, each sample was carefully moved to incubation at the temperature range appropriate for the inoculated challenge organism and incubated for four (4) days. Each day of incubation, all plates were removed from incubation for visual and stereoscopic evaluation. Upon evaluation, the presence or absence of growth on the plate and/or on the sample was noted. In addition, the sample was evaluated for the presence or absence of a zone of inhibition around the sample. The presence or absence of a zone was reported as “Z” for Zone (size in mm) or “NZ” for no zone present. [table] Additional Test Information: • G=Growth • NG=No Growth • Z=Zone (in mm) • NZ=No Zone • Additional Information/Observations: At the conclusion of the testing period, all test samples were individually removed from the agar surface and gently shaken to remove any excess moisture remaining on the surface of the sample. The samples were then individually examined under the stereoscope by a laboratory technician. […] Following the documentation of the observations above, each sample was scraped with an inoculating loop on the inoculated, top side of each sample to determine whether macroscopic growth could be visually observed. […] The following is a summary of findings from this portion of the test: […]

[2] = test system: Escherichia coli ATCC 8739
Protocol: as §1

[3] = test system: Candida albicans ATCC 10231
Protocol: as §1

Clc1cccc(Cl)c1N=C1NCCN1 [clonidine, 2,6-dichloro-N-2-imidazolidinyldenebenzenamine]
inhibited growth: growth of gram positive bacteria (S. aureus) [1] | growth of gram negative bacteria (E. coli) [2] | growth of fungus (C. albicans) [3]
